In test [1] the test system is HeLa. Put plainly: cells. The settings on record: Homo sapiens, 72 h.
Description: Anticancer activity against human HeLa cells assessed as reduction in cell viability incubated for 72 hrs by MTT assay
A short description of a further test: cells. The settings on record: Homo sapiens, SPCA1, 72 h.
In test [2] the test system is HepG2. Put plainly: cells. To be noted: Homo sapiens, HepG2, 72 h.
Description: Anticancer activity against human HepG2 cells assessed as reduction in cell viability incubated for 72 hrs by MTT assay
The next test has as its system HCT-116. Put plainly: cells. To be noted: Homo sapiens, HCT-116, 72 h.
Another test concerns CNE-2. Put plainly: Anticancer activity against human CNE-2 cells assessed as reduction in cell viability incubated for 72 hrs by MTT assay. The settings on record: CNE-2, 72 h. It is filed as functional, cell-based.
Test [3] in a line: Antiproliferative activity against human GBM-0627-GFD cells assessed as reduction in cell viability by MTT assay. It is filed as functional, cell-based.
A further test has as its system MDA-MB-231. Put plainly: cells. It is filed as functional, cell-based. To be noted: Homo sapiens, MDA-MB-231, 48 h.
For the next test, the target named is Acetylcholinesterase (Electrophorus electricus, UniProt O42275). Put plainly: Inhibition of electric eel AchE using acetylthiocholine as substrate incubated for 30 mins by Ellman's method.
Sequence of Acetylcholinesterase (O42275 whole entry): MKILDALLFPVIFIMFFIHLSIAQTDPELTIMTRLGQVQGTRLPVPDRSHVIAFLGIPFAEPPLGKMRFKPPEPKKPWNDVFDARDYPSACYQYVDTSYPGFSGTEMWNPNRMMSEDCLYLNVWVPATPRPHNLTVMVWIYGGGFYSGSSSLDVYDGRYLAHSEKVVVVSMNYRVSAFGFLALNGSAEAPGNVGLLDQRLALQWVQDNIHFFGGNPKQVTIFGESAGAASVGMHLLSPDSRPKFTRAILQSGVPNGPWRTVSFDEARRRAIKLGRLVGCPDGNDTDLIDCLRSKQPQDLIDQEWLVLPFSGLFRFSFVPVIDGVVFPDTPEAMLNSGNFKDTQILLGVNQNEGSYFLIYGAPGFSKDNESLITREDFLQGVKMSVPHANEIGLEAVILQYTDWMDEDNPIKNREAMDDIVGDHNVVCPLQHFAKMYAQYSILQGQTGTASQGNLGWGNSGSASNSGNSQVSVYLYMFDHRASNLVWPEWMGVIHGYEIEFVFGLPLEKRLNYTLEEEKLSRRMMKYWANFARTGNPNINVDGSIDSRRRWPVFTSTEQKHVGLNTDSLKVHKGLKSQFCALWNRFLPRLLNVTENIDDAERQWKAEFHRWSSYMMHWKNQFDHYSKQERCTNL
Another test concerns the target Cholinesterase (Equus caballus, UniProt P81908). Put plainly: Inhibition of equine serum BuChE using butyrylthiocholine iodide as substrate measured for 30 mins by ELLman's method.
The test system of the next test is Acinetobacter baumannii. Put plainly: microbe, parasite or virus in culture. To be noted: ATCC 19606.
A further test has as its system Staphylococcus aureus. Put plainly: microbe, parasite or virus in culture. To be noted: Staphylococcus aureus, 171, 24 h.
Another test has as its system Pseudomonas aeruginosa. Put plainly: microbe, parasite or virus in culture. The settings on record: Pseudomonas aeruginosa, 126, 24 h.
The test system of a further test is Escherichia coli. Put plainly: microbe, parasite or virus in culture.
A further test has as its system CNE. Put plainly: cells. The class given is functional, cell-based. To be noted: Homo sapiens, 48 h.
The next test deals with SK-OV-3. Put plainly: cells. It is filed as functional, cell-based. To be noted: Homo sapiens, SK-OV-3, 48 h.
Test [4] relates to HeLa. Put plainly: Antiproliferative activity against human HeLa cells assessed as reduction in cell viability incubated for 48 hrs by CCK-8 assay. The class given is functional, cell-based.
A further test has as its system HEK-293T. Put plainly: Antiproliferative activity against HEK293T cells assessed as reduction in cell viability incubated for 48 hrs by CCK-8 assay. It is filed as functional, cell-based. The settings on record: Homo sapiens.
Test [5] relates to HepG2. Put plainly: cells. The settings on record: Homo sapiens, HepG2, 48 h.
The next test deals with MCF7. Put plainly: Antiproliferative activity against human MCF7 cells assessed as reduction in cell viability incubated for 48 hrs by CCK-8 assay. The class given is functional, cell-based. To be noted: MCF7, 48 h.
A further test deals with KB. Put plainly: Antiproliferative activity against human KB cells assessed as reduction in cell viability incubated for 48 hrs by CCK-8 assay. It is filed as functional, cell-based.

In brackets after ≈: the same amount, converted by molar mass. Bounds are passed on as bounds.

Sequence of Cholinesterase (P81908 whole entry): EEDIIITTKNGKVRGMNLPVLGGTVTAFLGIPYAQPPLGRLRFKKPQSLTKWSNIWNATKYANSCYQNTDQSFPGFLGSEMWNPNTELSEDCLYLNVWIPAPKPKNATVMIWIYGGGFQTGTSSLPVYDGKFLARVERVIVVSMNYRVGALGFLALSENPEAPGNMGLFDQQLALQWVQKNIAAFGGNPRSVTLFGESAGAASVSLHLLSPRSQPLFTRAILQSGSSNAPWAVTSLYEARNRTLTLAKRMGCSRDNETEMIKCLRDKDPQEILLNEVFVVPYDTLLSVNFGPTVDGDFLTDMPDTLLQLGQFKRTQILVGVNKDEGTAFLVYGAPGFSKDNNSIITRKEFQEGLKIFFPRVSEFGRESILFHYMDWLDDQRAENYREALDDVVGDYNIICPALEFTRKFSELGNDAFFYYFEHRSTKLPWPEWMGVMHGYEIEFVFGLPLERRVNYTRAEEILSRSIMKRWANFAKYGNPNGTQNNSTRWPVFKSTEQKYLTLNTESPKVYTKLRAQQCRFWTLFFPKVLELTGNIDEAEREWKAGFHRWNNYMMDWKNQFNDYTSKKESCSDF
Description for Acinetobacter baumannii: Antibacterial activity against Acinetobacter baumannii ATCC 19606 assessed as inhibition of bacterial growth by broth microdilution method
Description for Escherichia coli: Antibacterial activity against Escherichia coli assessed as inhibition of bacterial growth by broth microdilution method
Description for HCT-116: Anticancer activity against human HCT-116 cells assessed as reduction in cell viability incubated for 72 hrs by MTT assay
Description for MDA-MB-231: Anticancer activity against human MDA-MB-231 cells assessed as reduction in cell growth incubated for 48 hrs by MTT assay
Description for Pseudomonas aeruginosa: Antibacterial activity against multidrug-resistant Pseudomonas aeruginosa 126 clinical isolate assessed as reduction in bacterial growth incubated for 24 hrs by CLSI based broth microdilution method
Description for SK-OV-3: Anticancer activity against human SK-OV-3 cells assessed as reduction in cell growth incubated for 48 hrs by MTT assay
Description for Staphylococcus aureus: Antimicrobial activity against methicillin-resistant Staphylococcus aureus 171 clinical isolate assessed as bacterial growth inhibition incubated for 24 hrs by CLSI based broth microdilution method

Consider `CCOP(=O)(OCC)C(NC(=O)c1cc(O)c2c(c1)C(=O)c1cccc(O)c1C2=O)c1cccc(Cl)c1` (configuration not stated), for which the IC50 with HeLa [1] was determined as 35.2 µM; in the test “cells”, 28.3 µM; with HepG2 [2], 39.2 µM; in the test on HCT-116, 48.2 µM; in the test on CNE-2, 68 µM.

For the compound `CCOP(=O)(OCC)C(NC(=O)c1cc(O)c2c(c1)C(=O)c1cccc(O)c1C2=O)c1cccc(OC)c1` (configuration not stated), the IC50 in the test “cells” was 28.3 µM; with CNE-2 it was 24.1 µM.

Consider `CCOP(=O)(OCC)C(NC(=O)c1cc(O)c2c(c1)C(=O)c1cccc(O)c1C2=O)c1ccccc1OC` (configuration not stated), for which the half-maximal inhibitory concentration (IC50) is 15 µM in “cells” and 28.6 µM in the test on CNE-2.

For the compound `CCOP(=O)(OCC)C(NC(=O)c1cc(O)c2c(c1)C(=O)c1cccc(O)c1C2=O)c1ccccc1` (configuration not stated), the IC50 turned out to be 27.4 µM in the test “cells” and 34.3 µM with CNE-2.

For `CCOP(=O)(OCC)C(NC(=O)c1cc(O)c2c(c1)C(=O)c1cccc(O)c1C2=O)c1ccc(OC)cc1` (configuration not stated), the results for the IC50 in “cells” and in the test on CNE-2 were 38.9 µM and 42.9 µM, respectively.

For `CCOP(=O)(OCC)C(C)(NC(=O)c1cc(O)c2c(c1)C(=O)c1cccc(O)c1C2=O)c1ccc(C)cc1` (configuration not stated), the IC50 is above 50 µM with HeLa [1], 16.9 µM in the test “cells”, 30.6 µM with HCT-116 and 33.8 µM with CNE-2.

Regarding `CCOP(=O)(OCC)C(C)(NC(=O)c1cc(O)c2c(c1)C(=O)c1cccc(O)c1C2=O)c1ccccc1` (configuration not stated), the IC50 with HeLa [1] is above 50 µM; in “cells”, 25.1 µM; with HCT-116, 23.4 µM; in the test with CNE-2, 38.3 µM.

Take `CCOP(=O)(OCC)C(C)(CCc1ccccc1)NC(=O)c1cc(O)c2c(c1)C(=O)c1cccc(O)c1C2=O` (configuration not stated): the IC50 with HeLa [1] came to 45.4 µM; in “cells”, 9.01 µM; with HCT-116, 12.7 µM; with CNE-2, 27.3 µM.

With `O=C(CCCCCNC(=O)c1cc(O)c2c(c1)C(=O)c1cccc(O)c1C2=O)NO`, the IC50 in test [3] was 5.5 µM.

`Cc1ccc(Nc2ncnc3ccc(NC(=O)c4cc(OCc5ccccc5)c5c(c4)C(=O)c4cccc(OCc6ccccc6)c4C5=O)cc23)cc1` had an IC50 in the test with MDA-MB-231 of 3.1 µM.

Regarding `O=C(NCCCCCCCCNc1c2c(nc3ccccc13)CCCC2)c1cc(O)c2c(c1)C(=O)c1cccc(O)c1C2=O`, the IC50 stood at 0.148 µM at Acetylcholinesterase and 0.36 µM against Cholinesterase.

For `COc1ccc(C[n+]2ccc(CCCOC(=O)c3cc(O)c4c(c3)C(=O)c3cccc(O)c3C4=O)cc2)cc1.[Br-]`, the MIC was 128 µg/mL in the test on Acinetobacter baumannii, 16 µg/mL in the test with Staphylococcus aureus, 32 µg/mL in the test with Pseudomonas aeruginosa and above 128 µg/mL in the test with Escherichia coli.

`O=C(NCCCCCCNc1c2c(nc3cc(Cl)ccc13)CCCC2)c1cc(O)c2c(c1)C(=O)c1cccc(O)c1C2=O`: the IC50 against Acetylcholinesterase was found to be 0.022 µM; against Cholinesterase it was 0.773 µM.

Consider `Cc1ccc(C[n+]2ccc(CCCOC(=O)c3cc(O)c4c(c3)C(=O)c3cccc(O)c3C4=O)cc2)cc1.[Br-]`, for which the MIC against Acinetobacter baumannii is above 128 µg/mL; against Staphylococcus aureus it was 8 µg/mL; against Pseudomonas aeruginosa, 16 µg/mL; against Escherichia coli it was 64 µg/mL.

For `COc1ccc(Nc2ncnc3ccc(NC(=O)c4cc(OCc5ccccc5)c5c(c4)C(=O)c4cccc(OCc6ccccc6)c4C5=O)cc23)cc1`, the IC50 in the test with CNE was 24.8 µM; in the test on MDA-MB-231 it was 42.4 µM; in the test with SK-OV-3 it was above 100 µM.

On to `N#Cc1ccc(C[n+]2ccc(CCCNC(=O)c3cc(O)c4c(c3)C(=O)c3cccc(O)c3C4=O)cc2)cc1.[Br-]`, for which the MIC was above 128 µg/mL in the test with Acinetobacter baumannii, 16 µg/mL in the test on Staphylococcus aureus, 32 µg/mL in the test with Pseudomonas aeruginosa and 64 µg/mL with Escherichia coli.

Turning to `COc1cccc(Nc2ncnc3ccc(NC(=O)c4cc(OCc5ccccc5)c5c(c4)C(=O)c4cccc(OCc6ccccc6)c4C5=O)cc23)c1`, the half-maximal inhibitory concentration (IC50) in the test with CNE was determined as 56.4 µM; in the test with MDA-MB-231, 74.1 µM; in the test on SK-OV-3 it was 68.6 µM.

As to `CCCCOc1cccc2c1C(=O)c1c(OCCCC)cc(C(=O)N[C@H](C(=O)O)C(C)C)cc1C2=O`, the IC50 in the test with HeLa [4] was 67.8 µM; with HEK-293T, 43.1 µM; in the test on HepG2 [5] it was 54.4 µM; in the test on MCF7, above 100 µM; with KB, 28.6 µM.

For the compound `N[C@@H](CCCCNC(=O)c1cc(O)c2c(c1)C(=O)c1cccc(O)c1C2=O)C(=O)O`, in test [3], the IC50 is above 80 µM.

Turning to `O=C(NCCCCCCNc1c2c(nc3ccccc13)CCC2)c1cc(O)c2c(c1)C(=O)c1cccc(O)c1C2=O`, the IC50 against Acetylcholinesterase was found to be 0.543 µM; against Cholinesterase it was 0.219 µM.

As to `CC(C)c1ccc(COc2cccc3c2C(=O)c2c(OCc4ccc(C(C)C)cc4)cc(C(=O)N[C@H](C(=O)O)C(C)C)cc2C3=O)cc1`, the IC50 in the test on HeLa [4] was 37.5 µM; in the test with HEK-293T, 1.9 µM; in the test with HepG2 [5], 5.8 µM; in the test on MCF7, 13.9 µM; in the test with KB, 9.4 µM.

As for `O=C(Nc1ccc2ncnc(Nc3ccc(F)cc3)c2c1)c1cc(OCc2ccccc2)c2c(c1)C(=O)c1cccc(OCc3ccccc3)c1C2=O`, the IC50 came out at 12.4 µM in the test on CNE, 3 µM with MDA-MB-231 and 20.5 µM in the test on SK-OV-3.

Regarding `CC(C)[C@H](NC(=O)c1cc(OCc2ccccc2)c2c(c1)C(=O)c1cccc(OCc3ccccc3)c1C2=O)C(=O)O`, the IC50 with HeLa [4] came out at 44.9 µM; in the test on HEK-293T, 21.5 µM; with HepG2 [5], 36.1 µM; in the test on MCF7 it was 36.5 µM; in the test with KB, 15.6 µM.

In the case of `O=C(NCCCCNc1c2c(nc3ccccc13)CCCC2)c1cc(O)c2c(c1)C(=O)c1cccc(O)c1C2=O`, the IC50 at Acetylcholinesterase amounted to 0.0587 µM; against Cholinesterase, 0.286 µM.

Turning to `Cc1cccc(Nc2ncnc3ccc(NC(=O)c4cc(OCc5ccccc5)c5c(c4)C(=O)c4cccc(OCc6ccccc6)c4C5=O)cc23)c1`, the concentration for half-maximal inhibition (IC50) was 5.9 µM in the test on CNE, 49.9 µM in the test with MDA-MB-231 and above 100 µM in the test on SK-OV-3.

`CC(C)[C@H](NC(=O)c1cc(OCc2cccc(F)c2)c2c(c1)C(=O)c1cccc(OCc3cccc(F)c3)c1C2=O)C(=O)O`: the IC50 was found to be 35.4 µM in the test on HeLa [4]; 12.9 µM in the test on HEK-293T; 29.6 µM with HepG2 [5]; 38.6 µM in the test with MCF7; 17.8 µM in the test on KB.

For `CC(C)[C@H](NC(=O)c1cc(OCCCc2ccccc2)c2c(c1)C(=O)c1cccc(OCCCc3ccccc3)c1C2=O)C(=O)O`, the IC50 in the test on HeLa [4] came to 9.4 µM; in the test on HEK-293T, 1.6 µM; in the test with HepG2 [5], 3.6 µM; in the test on MCF7 it was 4.5 µM; in the test with KB it was 4.9 µM.

Consider `CO/N=C(\C(=O)N[C@@H]1C(=O)N2C(C(=O)O)=C(COC(N)=O)CS[C@H]12)c1ccco1` [CEFUROXIME], for which the MIC was found to be 1020 µg/mL (≈ 2410 µM) with Acinetobacter baumannii, 1020 µg/mL (≈ 2410 µM) against Staphylococcus aureus, 1020 µg/mL (≈ 2410 µM) with Pseudomonas aeruginosa and 64 µg/mL (≈ 151 µM) with Escherichia coli.

Regarding `O=c1[nH]cc(F)c(=O)[nH]1` [FLUOROURACIL], the IC50 in “cells” came out at 42.2 µM; in the test on HepG2 [2], 30 µM; in the test with CNE-2 it was 40.2 µM.

The values above are taken from ChEMBL document CHEMBL6092146 (Bioorg Med Chem, 2024).
